For this assay, the target named is T1, IDO1 (Homo sapiens, UniProt P14902).
T1 construct: endogenous in cells; host or cells: HeLa cells (ATCC), IFNgamma-induced
Put plainly: IDO1 cell-based assay (HeLa cells, IFNgamma-induced, N-formylkynurenine/L-tryptophan by RFMS). Particulars: 10 ng/mL IFNgamma, 24 hours. The gist of the method: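 HeLa cells stimulated with 10 ng/mL IFNgamma and exposed to compound (0.5% DMSO final) for 24 h at 37 °C. Conditioned media deproteinized, then N-formylkynurenine and L-tryptophan quantified by RapidFire MS with deuterated tryptophan internal standard; IC50 by curve fitting. Viability checked by CellTiter-Glo.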

pIC50: −log10 of the molar value.

T1 sequence (P14902 whole entry): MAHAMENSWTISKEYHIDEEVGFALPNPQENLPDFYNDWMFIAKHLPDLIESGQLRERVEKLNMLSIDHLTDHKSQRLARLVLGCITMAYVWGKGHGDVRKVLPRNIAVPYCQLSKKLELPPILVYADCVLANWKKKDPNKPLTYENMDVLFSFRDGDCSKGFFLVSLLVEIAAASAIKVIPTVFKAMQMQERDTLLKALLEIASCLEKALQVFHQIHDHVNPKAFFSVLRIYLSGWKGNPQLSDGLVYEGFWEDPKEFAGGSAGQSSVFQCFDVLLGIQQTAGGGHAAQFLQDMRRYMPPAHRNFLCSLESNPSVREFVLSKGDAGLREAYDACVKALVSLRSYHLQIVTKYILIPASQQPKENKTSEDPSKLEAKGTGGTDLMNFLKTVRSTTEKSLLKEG

Turning to `CC[C@@H](NC(=O)c1ccc(Cl)cc1)[C@H]1[C@@H]2C[C@@H](n3cccn3)C[C@@H]21` [Compound 324, N-((R)-1-((1R,3S,5S,6r)-3-(1H-pyrazol-1-yl)bicyclo[3.1.0]hexan-6-yl)propyl)-4-chlorobenzamide], the negative-log IC50 (pIC50) is over 6.70.

As to `CC[C@@H](NC(=O)c1ccc(Cl)cc1)[C@H]1[C@@H]2C[C@@H](n3cc(C#N)cn3)C[C@@H]21` [Compound 325, 4-chloro-N-((R)-1-((1R,3S,5S,6r)-3-(4-cyano-1H-pyrazol-1-yl)bicyclo[3.1.0]hexan-6-yl)propyl)benzamide], the pIC50 is over 6.70.

`CC[C@@H](NC(=O)c1ccc(Cl)cc1)[C@H]1[C@@H]2C[C@@H](n3cc(C(=O)OC)cn3)C[C@@H]21` [Compound 326, methyl 1-((1R,3S,5S,6r)-6-((R)-1-(4-chlorobenzamido)propyl)bicyclo[3.1.0]hexan-3-yl)-1H-pyrazole-4-carboxylate]: the pIC50 is over 6.70.

For `CC[C@@H](NC(=O)c1ccc(Cl)cc1)[C@H]1[C@@H]2C[C@@H](NC(=O)c3ncccc3F)C[C@@H]21` [Compound 327, N-((1R,3S,5S,6r)-6-((R)-1-(4-chlorobenzamido)propyl)bicyclo[3.1.0]hexan-3-yl)-3-fluoropicolinamide], the pIC50 was over 6.70.

Compound `CC[C@@H](NC(=O)c1ccc(Cl)cc1)[C@H]1[C@@H]2C[C@@H](n3cc(C(=O)O)cn3)C[C@@H]21` [Compound 328, 1-((1R,3S,5S,6r)-6-((R)-1-(4-chlorobenzamido)propyl)bicyclo[3.1.0]hexan-3-yl)-1H-pyrazole-4-carboxylic acid] gave a negative logarithm of the IC50 (pIC50) of 5.70 to 6.70.

Regarding `CC[C@@H](NC(=O)c1ccc(Cl)cc1)[C@H]1[C@@H]2C[C@@H](n3cc(Br)cn3)C[C@@H]21` [Compound 329, N-((R)-1-((1R,3S,5S,6r)-3-(4-bromo-1H-pyrazol-1-yl)bicyclo[3.1.0]hexan-6-yl)propyl)-4-chlorobenzamide], the negative-log IC50 (pIC50) is over 6.70.

Compound `CC[C@@H](NC(=O)c1ccc(Cl)cc1)[C@H]1[C@@H]2C[C@@H](n3cc(C)cn3)C[C@@H]21` [Compound 330, 4-chloro-N-((R)-1-((1R,3S,5S,6r)-3-(4-methyl-1H-pyrazol-1-yl)bicyclo[3.1.0]hexan-6-yl)propyl)benzamide] had a pIC50 of over 6.70.

In turn, `CC[C@@H](NC(=O)c1ccc(Cl)cc1)[C@H]1[C@@H]2C[C@@H](Nc3ccccc3C#N)C[C@@H]21` [Compound 331, 4-chloro-N—((R)-1-((1R,3S,5S, 6r)-3-((2-cyanophenyl)amino)bicyclo[3.1.0]hexan-6-yl)propyl)benzamide] had a negative logarithm of the IC50 (pIC50) of over 6.70.

On to `CC[C@@H](NC(=O)c1ccc(Cl)cc1)[C@H]1[C@@H]2C[C@@H](n3cc(C(F)(F)F)cn3)C[C@@H]21` [Compound 332, 4-chloro-N-((R)-1-((1R,3S,5S,6r)-3-(4-(trifluoromethyl)-1H-pyrazol-1-yl)bicyclo[3.1.0]hexan-6-yl)propyl)benzamide], for which the negative logarithm of the IC50 (pIC50) is over 6.70.

As for `CC[C@@H](NC(=O)c1ccc(Cl)cc1)[C@H]1[C@@H]2C[C@@H](NC(=O)c3ccccn3)C[C@@H]21` [Compound 333, N-((1R,3S,5S,6r)-6-((R)-1-(4-chlorobenzamido)propyl)bicyclo[3.1.0]hexan-3-yl)picolinamide], the pIC50 was over 6.70.

As for `CC[C@@H](NC(=O)c1ccc(Cl)cc1)[C@H]1[C@@H]2C[C@@H](NC(=O)c3cccnc3)C[C@@H]21` [Compound 335, N-((1R,3S,5S,6r)-6-((R)-1-(4-chlorobenzamido)propyl)bicyclo[3.1.0]hexan-3-yl)nicotinamide], the pIC50 is over 6.70.

`CC[C@@H](NC(=O)c1ccc(Cl)cc1)[C@H]1[C@@H]2C[C@@H](Nc3ncnc4ccc(F)cc34)C[C@@H]21` [Compound 336, 4-chloro-N-((R)-1-((1R,3S,5S,6r)-3-((6-fluoroquinazolin-4-yl)amino)bicyclo[3.1.0]hexan-6-yl)propyl)benzamide]: the negative logarithm of the IC50 (pIC50) is over 6.70.

`C#Cc1ccc2ncnc(N[C@@H]3C[C@@H]4[C@H](C3)[C@H]4[C@@H](CC)NC(=O)c3ccc(Cl)cc3)c2c1` [Compound 337, 4-chloro-N-((R)-1-((1R,3S,5S,6r)-3-((6-ethynylquinazolin-4-yl)amino)bicyclo[3.1.0]hexan-6-yl)propyl)benzamide] gave a pIC50 of over 6.70.

On to `CC[C@@H](NC(=O)c1ccc(Cl)cc1)[C@H]1[C@@H]2C[C@@H](Nc3ncnc4ccc(C)cc34)C[C@@H]21` [Compound 338, 4-chloro-N-((R)-1-((1R,3S,5S,6r)-3-((6-methylquinazolin-4-yl)amino)bicyclo[3.1.0]hexan-6-yl)propyl)benzamide], for which the pIC50 is over 6.70.

Regarding `CC(C(=O)Nc1ccc(Cl)cc1)[C@H]1[C@@H]2C[C@@H](Oc3ncnc4ccc(F)cc34)C[C@@H]21` (stereo partly drawn) [Compound 339, N-(4-chlorophenyl)-2-((1R,3s,5S,6r)-3-((6-fluoroquinazolin-4-yl)oxy)bicyclo[3.1.0]hexan-6-yl)propanamide], the pIC50 is over 6.70.

For `CC(C(=O)Nc1ccc(Cl)cc1)[C@H]1[C@@H]2C[C@@H](Oc3cnnc4ccc(F)cc34)C[C@@H]21` (stereo partly drawn) [Compound 340, N-(4-chlorophenyl)-2-((1R,3s,5S,6r)-3-((6-fluorocinnolin-4-yl)oxy)bicyclo[3.1.0]hexan-6-yl)propanamide], the pIC50 was over 6.70.

`C[C@@H](NC(=O)c1ccc(Cl)cc1)[C@H]1[C@@H]2C[C@@H](Oc3cc(Cl)ccc3C(=O)O)C[C@@H]21` [Compound 341, 4-chloro-2-(((1R,3S,5S,6r)-6-((R)-1-(4-chlorobenzamido)ethyl)bicyclo[3.1.0]hexan-3-yl)oxy)benzoic acid] gave a negative logarithm of the IC50 (pIC50) of 5.30 to 5.70.

In turn, `CC[C@@H](NC(=O)c1ccc(Cl)cc1)[C@H]1[C@@H]2C[C@@H](n3nccc3C3CC3)C[C@@H]21` [Compound 342, 4-chloro-N-((R)-1-((1R,3S,5S,6r)-3-(5-cyclopropyl-1H-pyrazol-1-yl)bicyclo[3.1.0]hexan-6-yl)propyl)benzamide] gave a pIC50 of over 6.70.

`CC[C@@H](NC(=O)c1ccc(Cl)cc1)[C@H]1[C@@H]2C[C@@H](n3ccc(C4CC4)n3)C[C@@H]21` [Compound 343, 4-chloro-N-((R)-1-((1R,3S,5S,6r)-3-(3-cyclopropyl-1H-pyrazol-1-yl)bicyclo[3.1.0]hexan-6-yl)propyl)benzamide] showed a negative-log IC50 (pIC50) of over 6.70.

Consider `CC[C@@H](NC(=O)Nc1ccc(Cl)cc1)[C@H]1[C@@H]2C[C@@H](n3cnc4cc(F)c(F)cc43)C[C@@H]21` [Compound 344, 1-(4-chlorophenyl)-3-((R)-1-((1R,3S,5S,6r)-3-(5,6-difluoro-1H-benzo[d]imidazol-1-yl)bicyclo[3.1.0]hexan-6-yl)propyl)urea], for which the negative-log IC50 (pIC50) is over 6.70.

`CC(C(=O)Nc1ccc(Cl)c(F)c1)[C@H]1[C@@H]2C[C@@H](n3cnc4cc(F)c(F)cc43)C[C@@H]21` (stereo partly drawn) [Compound 345, N-(4-chloro-3-fluorophenyl)-2-((1R,3s,5S,6r)-3-(5,6-difluoro-1H-benzo[d]imidazol-1-yl)bicyclo[3.1.0]hexan-6-yl)propanamide] had a negative logarithm of the IC50 (pIC50) of over 6.70.

`CC[C@@H](NC(=O)c1ccc(Cl)cc1)[C@H]1[C@@H]2C[C@@H](Nc3ccccc3C(=O)O)C[C@@H]21` [Compound 346, 2-(((1R,3S,5S,6r)-6-((R)-1-(4-chlorobenzamido)propyl)bicyclo[3.1.0]hexan-3-yl)amino)benzoic acid] had a pIC50 of over 6.70.

Consider `CC(C(=O)Nc1ccc(Cl)cc1)[C@H]1[C@@H]2C[C@@H](Oc3ccnc4ccc(F)cc34)C[C@@H]21` (stereo partly drawn) [Compound 347, N-(4-chlorophenyl)-2-((1R,3s,5S,6r)-3-((6-fluoroquinolin-4-yl)oxy)bicyclo[3.1.0]hexan-6-yl)propanamide], for which the negative logarithm of the IC50 (pIC50) is over 6.70.

Compound `CC[C@@H](NC(=O)c1ccc(Cl)cc1)[C@H]1[C@@H]2C[C@@H](n3cc(C4CC4)cn3)C[C@@H]21` [Compound 348, 4-chloro-N-((R)-1-((1R,3S,5S,6r)-3-(4-cyclopropyl-1H-pyrazol-1-yl)bicyclo[3.1.0]hexan-6-yl)propyl)benzamide] gave a negative-log IC50 (pIC50) of over 6.70.

In turn, `CC[C@@H](NC(=O)Nc1ccc(Cl)c(F)c1)[C@H]1[C@@H]2C[C@@H](n3cnc4cc(F)c(F)cc43)C[C@@H]21` [Compound 349, 1-(4-chloro-3-fluorophenyl)-3-((R)-1-((1R,3S,5S,6r)-3-(5,6-difluoro-1H-benzo[d]imidazol-1-yl)bicyclo[3.1.0]hexan-6-yl)propyl)urea] had a negative-log IC50 (pIC50) of over 6.70.

In turn, `CC[C@@H](NC(=O)C1(C(F)(F)F)CC1)[C@H]1[C@@H]2C[C@@H](n3cnc4cc(F)c(F)cc43)C[C@@H]21` [Compound 352, N-((R)-1-((1R,3S,5S,6r)-3-(5,6-difluoro-1H-benzo[d]imidazol-1-yl)bicyclo[3.1.0]hexan-6-yl)propyl)-1-(trifluoromethyl)cyclopropane-1-carboxamide] showed a pIC50 of 5.70 to 6.70.

`CC[C@@H](NC(=O)NC1COC1)[C@H]1[C@@H]2C[C@@H](n3cnc4cc(F)c(F)cc43)C[C@@H]21` [Compound 353, 1-((R)-1-((1R,3S,5S,6r)-3-(5,6-difluoro-1H-benzo[d]imidazol-1-yl)bicyclo[3.1.0]hexan-6-yl)propyl)-3-(oxetan-3-yl)urea] gave a pIC50 of under 5.30.

In the case of `CC[C@@H](NC(=O)N1CC(F)(F)C1)[C@H]1[C@@H]2C[C@@H](n3cnc4cc(F)c(F)cc43)C[C@@H]21` [Compound 354, N-((R)-1-((1R,3S,5S,6r)-3-(5,6-difluoro-1H-benzo[d]imidazol-1-yl)bicyclo[3.1.0]hexan-6-yl)propyl)-3,3-difluoroazetidine-1-carboxamide], the negative logarithm of the IC50 (pIC50) was 5.70 to 6.70.
